Measurements published in publication PMC10447267, “Assessment of the potential of the MET inhibitor tepotinib to affect the pharmacokinetics of CYP3A4 and P-gp substrates” (Investigational New Drugs, 2023).

What was measured:
[1] = target: CYP3A4 (Homo sapiens, UniProt P08684); experiment: Study 1 (NCT03628339): effect of tepotinib on midazolam pharmacokinetics in healthy participants
Description: (§1) Study 1 (NCT03628339) and Study 2 (NCT03492437) were both Phase 1, open-label, single sequence, 2-period studies in 12 and 20 healthy participants, respectively (Fig. 1).
In Period 2 (Days 3 to 15), participants received 500 mg tepotinib, QD 30 min after starting a continental breakfast on Days 3 to 12. On Day 13, participants received the final dose of 500 mg tepotinib 30 min after starting a standardized breakfast identical to the one on Day 1. […] Blood samples for trough concentrations of tepotinib were collected on Days 11, 12 and 13.
(§2) Parameters included maximum plasma concentration (Cmax) and time to reach Cmax (Tmax) taken directly from the observed data. Area under the plasma concentration–time curve (AUC) from time 0 to the last measured concentration (AUC0-t), AUC over the dose interval (AUCtau) and AUC extrapolated to infinity (AUC0-∞) were calculated using the mixed log/linear trapezoidal rule. Terminal elimination half-life (t1/2) was calculated as ln(2)/λz where λz is the terminal rate constant. The primary pharmacokinetic parameters in both studies were Cmax, AUC0-t and AUC0-∞.
(§3) A similar statistical approach was taken for both studies. […] Point estimates and CIs were back-transformed to the original scale.

[2] = target: P-gp (Homo sapiens, UniProt P08183); experiment: Study 2 (NCT03492437): effect of tepotinib on dabigatran pharmacokinetics in healthy participants; assay type: in vivo
Chain of P-gp (P08183 whole entry): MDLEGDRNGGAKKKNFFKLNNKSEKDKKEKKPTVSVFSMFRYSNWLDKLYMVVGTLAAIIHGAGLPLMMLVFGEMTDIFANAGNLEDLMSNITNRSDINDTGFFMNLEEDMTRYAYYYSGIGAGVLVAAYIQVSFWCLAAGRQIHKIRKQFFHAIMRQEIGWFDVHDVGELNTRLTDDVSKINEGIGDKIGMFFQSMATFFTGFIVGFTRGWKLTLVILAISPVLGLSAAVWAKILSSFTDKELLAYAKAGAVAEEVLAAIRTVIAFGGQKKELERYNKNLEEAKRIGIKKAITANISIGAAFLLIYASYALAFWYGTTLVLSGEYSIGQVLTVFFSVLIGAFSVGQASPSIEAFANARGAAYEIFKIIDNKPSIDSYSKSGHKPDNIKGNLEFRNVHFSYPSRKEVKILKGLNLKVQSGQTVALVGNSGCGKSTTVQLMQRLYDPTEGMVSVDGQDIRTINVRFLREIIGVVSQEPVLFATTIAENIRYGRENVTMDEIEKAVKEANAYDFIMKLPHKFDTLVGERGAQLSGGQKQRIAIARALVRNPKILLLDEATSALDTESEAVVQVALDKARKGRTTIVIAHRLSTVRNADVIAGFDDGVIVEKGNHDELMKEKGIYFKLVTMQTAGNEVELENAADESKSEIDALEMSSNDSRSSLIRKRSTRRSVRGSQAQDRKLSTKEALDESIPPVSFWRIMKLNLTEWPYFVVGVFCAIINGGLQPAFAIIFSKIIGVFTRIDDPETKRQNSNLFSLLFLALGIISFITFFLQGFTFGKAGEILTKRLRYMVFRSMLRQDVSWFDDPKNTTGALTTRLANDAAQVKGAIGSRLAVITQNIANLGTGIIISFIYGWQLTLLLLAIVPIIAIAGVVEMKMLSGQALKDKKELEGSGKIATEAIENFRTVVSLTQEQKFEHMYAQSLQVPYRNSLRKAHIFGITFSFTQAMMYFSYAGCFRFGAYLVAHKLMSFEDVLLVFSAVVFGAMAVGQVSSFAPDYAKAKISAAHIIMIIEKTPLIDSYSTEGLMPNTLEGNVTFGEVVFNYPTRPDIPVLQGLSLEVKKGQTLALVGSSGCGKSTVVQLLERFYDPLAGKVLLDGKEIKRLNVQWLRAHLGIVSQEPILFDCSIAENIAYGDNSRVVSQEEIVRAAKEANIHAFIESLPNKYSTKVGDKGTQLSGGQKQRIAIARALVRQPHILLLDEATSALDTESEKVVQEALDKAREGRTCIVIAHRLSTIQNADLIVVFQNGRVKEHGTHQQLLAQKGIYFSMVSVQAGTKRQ
Description: as §1
In Period 2 (Days 4 to 14), participants received 500 mg tepotinib QD on Days 4 to 11. […] Blood samples for trough concentrations of tepotinib were collected on Days 9 and 10. Further blood samples for tepotinib and its metabolites were also collected up to 24 h postdose on Day 10.
as §2, §3

[3] = midazolam 7.5 mg single oral dose alone, N = 12, geometric mean (geometric CV%)
[4] = midazolam 7.5 mg with tepotinib 500 mg once daily, N = 12, geometric mean (geometric CV%)
[5] = tepotinib + dabigatran versus dabigatran alone

Chain of CYP3A4 (P08684 whole entry): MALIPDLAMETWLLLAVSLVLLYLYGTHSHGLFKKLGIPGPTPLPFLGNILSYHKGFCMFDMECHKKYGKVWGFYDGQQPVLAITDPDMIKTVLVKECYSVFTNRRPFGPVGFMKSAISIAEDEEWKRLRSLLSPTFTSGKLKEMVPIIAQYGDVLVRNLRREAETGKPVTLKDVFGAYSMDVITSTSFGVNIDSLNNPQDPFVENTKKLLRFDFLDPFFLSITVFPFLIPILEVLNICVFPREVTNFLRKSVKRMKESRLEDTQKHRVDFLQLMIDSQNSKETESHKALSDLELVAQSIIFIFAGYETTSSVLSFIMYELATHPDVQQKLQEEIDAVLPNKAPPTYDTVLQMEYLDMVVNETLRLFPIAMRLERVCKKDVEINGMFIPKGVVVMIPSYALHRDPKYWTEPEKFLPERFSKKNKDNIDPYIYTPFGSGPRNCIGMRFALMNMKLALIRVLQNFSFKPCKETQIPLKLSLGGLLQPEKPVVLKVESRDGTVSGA

## OCc1ncc2n1-c1ccc(Cl)cc1C(c1ccccc1F)=NC2 [1-hydroxymidazolam]
[1]; [3]
  AUC0-t: 30,589 (24) h*pg/mL
  AUC0-∞: 31,269 (23) h*pg/mL
  Cmax: 14,909 (60) pg/mL
  t1/2: 6.34 (30) h
[1]; midazolam 7.5 mg single oral dose alone, N = 12, median (min, max)
  Tmax: 0.500 (0.500, 2.00) h
[1]; [4]
  AUC0-t: 32,627 (25) h*pg/mL
  AUC0-∞: 33,372 (24) h*pg/mL
  Cmax: 15,852 (35) pg/mL
  t1/2: 6.90 (27) h
[1]; midazolam 7.5 mg with tepotinib 500 mg once daily, N = 12, median (min, max)
  Tmax: 0.508 (0.483, 2.00) h
[1]; midazolam alone, geometric mean (geometric CV%)
  MR_AUC (metabolic ratio of 1-hydroxymidazolam AUC0-∞ and midazolam AUC0-∞): 0.286 (37) ratio
[1]; midazolam with tepotinib 500 mg once daily, geometric mean (geometric CV%)
  MR_AUC (metabolic ratio of 1-hydroxymidazolam AUC0-∞ and midazolam AUC0-∞): 0.302 (34) ratio

## [H]/N=C(/N)c1ccc(NCc2nc3cc(C(=O)N(CCC(=O)O)c4ccccn4)ccc3n2C)cc1 [dabigatran]
[2]; human, plasma, oral, read-out: Terminal half-life (converted)
  half-life: ~8 h
[2]; tepotinib 500 mg QD orally
  Exposure increase to dabigatran with tepotinib: < 2 fold
[2]; tepotinib 500 mg once daily
  Increase of dabigatran area under the curve extrapolated to infinity by tepotinib: 51%
[2]; tepotinib 500 mg once daily, compared to administration alone
  Increase of dabigatran AUC by coadministration with tepotinib: ~50%
[2]; [5]
  Ratio of Geometric LS Mean (90% CI), AUC0-t: 151.38 (127.35, 179.93) %
  Ratio of Geometric LS Mean (90% CI), AUC0-∞: 144.70 (122.89, 170.39) %

## Cc1ncc2n1-c1ccc(Cl)cc1C(c1ccccc1F)=NC2 [midazolam]
[1]; human, plasma, oral
  Tmax: 0.508 h
  half-life: ~5 h
[1]; human, plasma, po, 7.5 mg
  AUC0-t: 108 ng·h/mL
  AUC(0-inf): 109 ng·h/mL
  Cmax: 49.2 ng/mL
  Tmax: 0.5 h
[1]; [4]
  t1/2: 4.81 (41) h
[1]; tepotinib 500 mg QD orally
  Change in exposure to midazolam with tepotinib (in words): no change in exposure
